Measured values as given in PMC8422859, “A Novel Oral Arginase 1/2 Inhibitor Enhances the Antitumor Effect of PD-1 Inhibition in Murine Experimental Gliomas by Altering the Immunosuppressive Environment” (Frontiers in Oncology, 2021).
Entries after “also recorded” stand apart in the source; their conditions may differ.

How the values were obtained:
[1] = molecular target: T1, recombinant human ARG2 (Homo sapiens, UniProt P78540); experiment: Recombinant arginase activity assay, hARG2; assay type: biochemical; settings: 1 h at 37°C, pH 7.4, 10 mM L-arginine, urea detection; read-out: Inhibition of recombinant hARG2: IC50
T1 construct: made in house; host or cells: E. coli
T1 sequence (P78540 23-354): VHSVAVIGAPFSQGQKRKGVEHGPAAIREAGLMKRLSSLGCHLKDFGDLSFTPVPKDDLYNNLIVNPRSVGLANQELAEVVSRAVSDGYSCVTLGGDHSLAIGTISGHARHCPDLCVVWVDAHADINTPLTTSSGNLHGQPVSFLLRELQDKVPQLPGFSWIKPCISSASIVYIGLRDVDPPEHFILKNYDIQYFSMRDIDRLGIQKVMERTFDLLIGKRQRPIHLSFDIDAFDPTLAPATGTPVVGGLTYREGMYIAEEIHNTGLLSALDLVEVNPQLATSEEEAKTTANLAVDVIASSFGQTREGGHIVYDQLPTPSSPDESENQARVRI
Protocol: The inhibitory activity towards hARG1 and hARG2 enzymes was assessed using recombinant enzymes biosynthesized using a prokaryotic expression system (E. coli) and purified by fast protein liquid chromatography (FPLC). Briefly, recombinant enzymes were incubated with the tested compounds for 1 h at 37°C in the reaction buffer (100 mM sodium phosphate buffer, 130 mM NaCl, 1 mg/mL BSA, pH 7.4) containing substrate (10 mM L-arginine hydrochloride) and cofactor (200 µM MnCl2). The assay is based on the detection of urea, which is generated during the conversion of L-arginine into L-ornithine catalyzed by arginases. To visualize the product, we adding a mixture of reagent A (4 mM oPA, 50 mM boric acid, 1 M sulfuric acid, 0.03% Brij-35) and reagent B (4 mM NED, 50 mM boric acid, 1 M sulfuric acid, 0.03% Brij-35) in equal proportions. The absorbance was measured at 515 nm. The urea production in the absence of any tested compound was considered as maximal enzyme activity. The absorbance in the absence of arginase (background) was considered as zero activity. Two reference compounds OAT-81 (ABH, no. 222638-65-5) and OAT-90 (2-amino-6-borono-2-(2-(3-(2,4-dichlorophenyl)propyloamino)ethyl) hexanoic acid, and two novel inhibitors OAT-1617 and OAT-1746 (the last three synthesized at OncoArendi Therapeutics) were tested. Normalized values were analyzed using GraphPad Prism 7.0 software and the IC50 values were determined.

[2] = test system: LN18 glioma cells; experiment: Matrigel invasion assay, LN18 co-cultured with BV2 microglia; assay type: cell-based, human; settings: 11 µM, co-culture with BV2, 18 h
Protocol: BV2 cells were plated onto a 24-well plate at the density of 4×10^4. After 24 h, the invasion assay was performed with tissue culture inserts (6.5 mm Transwell® with 8.0 µm Pore Polycarbonate Membrane Insert, Corning, NY, USA) coated with the Growth Factor Reduced Matrigel™ Matrix (BD Biosciences, San Diego. CA, USA). The Matrigel™ Matrix (50 µL of 1 mg/mL stock solution diluted in fresh DMEM) was dried under sterile conditions (37°C) for 5–6 h. The medium in BV2 cultures was replaced with fresh one 1 h before seeding glioblastoma cells onto the inserts, then LN18 and U87 glioblastoma cells were seeded at 2×10^4/insert on Matrigel-covered membranes in a serum-reduced medium (2% FBS). Untreated glioblastoma cells co-cultured with or without BV2 cells served as positive and negative controls, respectively. Cells were treated with the arginase-1 inhibitors OAT-90, OAT-1617 and OAT-1746 solved in PBS. The cultures were kept in incubator at 37°C with humidified air containing 5% CO2. […] The membranes from Transwell® inserts were cut out and images were acquired using a fluorescence microscope (Leica DM4000B, 10x lens) from the 5 independent fields (bottom; top; left; right side and the middle). Numbers of invading cells were counted using the ImageJ software (NIH, Bethesda, MD, USA). […]

[3] = test system: glioma-associated CD11b+ cells; experiment: RNA-seq of CD11b+ cells from tumor-bearing hemispheres; assay type: in vivo, mouse
Protocol: Immediately after sorting, CD11b^+ cells were centrifuged and lysed for further isolation of RNA using the RNeasy Plus Mini Kit (Qiagen, Germany). The integrity and quality of RNA were assessed on an Agilent 2100 Bioanalyzer with an RNA 6000 Pico Kit (Agilent Technologies, CA, USA). A total of 9 strand-specific RNA libraries were prepared for sequencing (2-3 biological replicates/treatment) using a KAPA Stranded mRNA-Seq Kit (Kapa Biosystems, MA, USA). Poly-A mRNAs were purified from 100 ng of total RNA using poly-T-oligo-magnetic beads (Kapa Biosystems, MA, USA). mRNAs were fragmented and a first-strand cDNA was synthesized using reverse transcriptase and random hexamers. […] Final libraries were analyzed using Bioanalyzer and Agilent DNA High Sensitivity chips (Agilent Technologies, Santa Clara, CA, USA) to confirm fragment sizes (~300 bp). Quantification was performed using a Quantus fluorometer and the QuantiFluor dsDNA System (Promega, Madison, Wisconsin, US). […]
Illumina-specific adapters, short reads, and low quality 5’ and 3’ bases were filtered out in the FASTQ format files using Trimmomatic ([27]) tool (version 0.36). The resulting RNA sequencing reads were aligned to a reference mouse genome sequence (mm10) with STAR aligner ([28]) (version 2.6.1b) using the two pass Mode Basic option. […]

Q: CN(C)C[C@@H]1CC[C@@H](CCB(O)O)C[C@]1(N)C(=O)O [OAT-1746] was tested. Which IC50 [1] did it give?
A: 49 nM

Q: And the “microglia-induced invasion of LN18 cells” value [2]?
A: effectively reduced glioma invasion; also recorded: reduced microglia-induced invasion of glioma cells more efficiently

Q: What about the “differentially expressed genes versus CTR (padj<0.05)” value [3] of the same molecule?
A: over 1800 genes
